According to ChEMBL document CHEMBL1201862, “PubChem BioAssay data set” (2004):
Calls of active or inactive are those of the source. Rule as the data show it, for most assays here: active = EC50 of 10 µM or less and inactive = more.

Columns and labels:
[1] = target: Glyceraldehyde-3-phosphate dehydrogenase (Homo sapiens, UniProt P04406)
[2] = target: Alkaline phosphatase, placental type (Homo sapiens, UniProt P05187); assay: human placental alkaline phosphatase inhibition – biochemical, luminescence, confirmation (AID 1512); assay type: functional
Sequence of Alkaline phosphatase, placental type (P05187 whole entry): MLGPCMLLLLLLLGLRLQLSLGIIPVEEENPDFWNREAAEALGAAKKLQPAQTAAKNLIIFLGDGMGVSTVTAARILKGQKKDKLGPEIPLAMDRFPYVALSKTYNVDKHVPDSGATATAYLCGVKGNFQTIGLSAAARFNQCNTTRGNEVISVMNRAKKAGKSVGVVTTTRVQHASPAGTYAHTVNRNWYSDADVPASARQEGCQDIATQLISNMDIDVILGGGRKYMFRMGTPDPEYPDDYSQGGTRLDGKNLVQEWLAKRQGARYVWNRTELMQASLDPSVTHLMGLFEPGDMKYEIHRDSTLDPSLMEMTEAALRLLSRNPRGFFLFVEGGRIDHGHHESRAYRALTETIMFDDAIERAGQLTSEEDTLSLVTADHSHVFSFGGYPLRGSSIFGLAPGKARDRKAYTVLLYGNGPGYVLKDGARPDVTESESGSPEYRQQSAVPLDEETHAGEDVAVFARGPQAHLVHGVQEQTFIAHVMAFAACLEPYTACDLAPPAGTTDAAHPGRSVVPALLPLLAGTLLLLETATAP

[3] = target: T1, Alkaline phosphatase, tissue-nonspecific isozyme (Homo sapiens, UniProt P05186); assay: potency against alkaline phosphatase TNAP – biochemical, luminescent, dose response, SAR follow-up (AID 1056)
T1 sequence (P05186 whole entry): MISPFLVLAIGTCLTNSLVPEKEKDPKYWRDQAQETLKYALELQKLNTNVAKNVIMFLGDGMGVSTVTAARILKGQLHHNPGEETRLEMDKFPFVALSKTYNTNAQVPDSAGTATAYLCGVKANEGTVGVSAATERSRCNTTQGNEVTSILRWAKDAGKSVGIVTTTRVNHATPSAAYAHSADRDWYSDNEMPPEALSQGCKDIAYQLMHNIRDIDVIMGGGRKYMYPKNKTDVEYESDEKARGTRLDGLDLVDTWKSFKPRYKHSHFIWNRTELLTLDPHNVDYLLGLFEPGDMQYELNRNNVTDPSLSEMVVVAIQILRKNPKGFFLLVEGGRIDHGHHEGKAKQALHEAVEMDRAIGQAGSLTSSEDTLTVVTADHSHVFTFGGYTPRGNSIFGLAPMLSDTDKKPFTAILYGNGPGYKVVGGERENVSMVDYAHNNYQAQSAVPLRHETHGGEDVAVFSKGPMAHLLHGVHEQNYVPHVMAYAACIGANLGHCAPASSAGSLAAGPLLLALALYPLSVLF

Ion channel NompC = Ion channel NompC (Danio rerio, UniProt Q7T1G6); assay: Dose response cell-based high-throughput screening assay for agonists of the transient receptor potential channel N1 (TRPN1). [Related pubchem assays (depositor defined):AID1424, AID1448]; assay type: functional
Mucolipin-3 = target: T2, Mucolipin-3 (Homo sapiens, UniProt Q8TDD5); assay: Fluorescence counterscreen assay for […] agonists: dose response cell-based high-throughput screening assay to identify agonists of the transient receptor potential channel ML3 (TRPML3). [Related pubchem assays: 1424, 1448 ]; assay type: functional
T2 sequence (Q8TDD5 whole entry): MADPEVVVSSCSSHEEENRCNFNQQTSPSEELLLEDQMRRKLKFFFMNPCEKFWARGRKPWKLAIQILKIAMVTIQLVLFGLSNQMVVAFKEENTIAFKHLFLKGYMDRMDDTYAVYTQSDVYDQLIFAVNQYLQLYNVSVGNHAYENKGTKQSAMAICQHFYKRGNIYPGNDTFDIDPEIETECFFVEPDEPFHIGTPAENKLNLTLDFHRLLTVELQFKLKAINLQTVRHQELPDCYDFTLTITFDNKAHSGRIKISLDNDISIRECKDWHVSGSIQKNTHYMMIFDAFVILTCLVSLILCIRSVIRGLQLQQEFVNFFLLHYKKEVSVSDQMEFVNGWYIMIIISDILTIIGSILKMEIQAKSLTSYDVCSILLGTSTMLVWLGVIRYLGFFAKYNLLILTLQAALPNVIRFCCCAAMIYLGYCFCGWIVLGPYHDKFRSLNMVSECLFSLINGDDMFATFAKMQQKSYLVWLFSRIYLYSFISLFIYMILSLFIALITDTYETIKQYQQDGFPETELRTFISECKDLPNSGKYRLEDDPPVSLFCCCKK

[4] = target: Peroxisome proliferator-activated receptor gamma/Nuclear receptor coactivator 1 (Homo sapiens, UniProt P37231); assay: (§1) TR-FRET dose response biochemical High Throughput Screening assay for agonists of the steroid receptor coactivator 1 (SRC-1) recruitment by the peroxisome proliferator-activated receptor gamma (PPAR gamma): non-selective agonists. [Related pubchem assays (depositor defined):AID1300, AID1808, AID504735, AID631]; assay type: protein assay
Sequence of Peroxisome proliferator-activated receptor gamma/Nuclear receptor coactivator 1 (P37231 whole entry): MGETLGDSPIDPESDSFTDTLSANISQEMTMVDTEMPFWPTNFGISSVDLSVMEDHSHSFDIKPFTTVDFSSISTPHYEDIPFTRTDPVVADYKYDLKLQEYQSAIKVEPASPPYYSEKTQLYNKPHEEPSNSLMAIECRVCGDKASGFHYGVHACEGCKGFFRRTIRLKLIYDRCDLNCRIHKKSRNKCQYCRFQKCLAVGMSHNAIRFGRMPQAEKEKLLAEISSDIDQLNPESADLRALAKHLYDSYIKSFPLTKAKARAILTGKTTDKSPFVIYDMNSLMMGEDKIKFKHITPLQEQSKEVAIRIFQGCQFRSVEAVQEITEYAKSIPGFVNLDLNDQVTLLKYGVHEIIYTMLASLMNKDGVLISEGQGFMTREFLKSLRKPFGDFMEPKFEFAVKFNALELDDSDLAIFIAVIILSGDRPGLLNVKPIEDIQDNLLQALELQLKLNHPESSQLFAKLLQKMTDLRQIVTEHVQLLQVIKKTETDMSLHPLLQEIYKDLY
Sequence of Peroxisome proliferator-activated receptor gamma/Nuclear receptor coactivator 1 (Q15788 whole entry, further chain): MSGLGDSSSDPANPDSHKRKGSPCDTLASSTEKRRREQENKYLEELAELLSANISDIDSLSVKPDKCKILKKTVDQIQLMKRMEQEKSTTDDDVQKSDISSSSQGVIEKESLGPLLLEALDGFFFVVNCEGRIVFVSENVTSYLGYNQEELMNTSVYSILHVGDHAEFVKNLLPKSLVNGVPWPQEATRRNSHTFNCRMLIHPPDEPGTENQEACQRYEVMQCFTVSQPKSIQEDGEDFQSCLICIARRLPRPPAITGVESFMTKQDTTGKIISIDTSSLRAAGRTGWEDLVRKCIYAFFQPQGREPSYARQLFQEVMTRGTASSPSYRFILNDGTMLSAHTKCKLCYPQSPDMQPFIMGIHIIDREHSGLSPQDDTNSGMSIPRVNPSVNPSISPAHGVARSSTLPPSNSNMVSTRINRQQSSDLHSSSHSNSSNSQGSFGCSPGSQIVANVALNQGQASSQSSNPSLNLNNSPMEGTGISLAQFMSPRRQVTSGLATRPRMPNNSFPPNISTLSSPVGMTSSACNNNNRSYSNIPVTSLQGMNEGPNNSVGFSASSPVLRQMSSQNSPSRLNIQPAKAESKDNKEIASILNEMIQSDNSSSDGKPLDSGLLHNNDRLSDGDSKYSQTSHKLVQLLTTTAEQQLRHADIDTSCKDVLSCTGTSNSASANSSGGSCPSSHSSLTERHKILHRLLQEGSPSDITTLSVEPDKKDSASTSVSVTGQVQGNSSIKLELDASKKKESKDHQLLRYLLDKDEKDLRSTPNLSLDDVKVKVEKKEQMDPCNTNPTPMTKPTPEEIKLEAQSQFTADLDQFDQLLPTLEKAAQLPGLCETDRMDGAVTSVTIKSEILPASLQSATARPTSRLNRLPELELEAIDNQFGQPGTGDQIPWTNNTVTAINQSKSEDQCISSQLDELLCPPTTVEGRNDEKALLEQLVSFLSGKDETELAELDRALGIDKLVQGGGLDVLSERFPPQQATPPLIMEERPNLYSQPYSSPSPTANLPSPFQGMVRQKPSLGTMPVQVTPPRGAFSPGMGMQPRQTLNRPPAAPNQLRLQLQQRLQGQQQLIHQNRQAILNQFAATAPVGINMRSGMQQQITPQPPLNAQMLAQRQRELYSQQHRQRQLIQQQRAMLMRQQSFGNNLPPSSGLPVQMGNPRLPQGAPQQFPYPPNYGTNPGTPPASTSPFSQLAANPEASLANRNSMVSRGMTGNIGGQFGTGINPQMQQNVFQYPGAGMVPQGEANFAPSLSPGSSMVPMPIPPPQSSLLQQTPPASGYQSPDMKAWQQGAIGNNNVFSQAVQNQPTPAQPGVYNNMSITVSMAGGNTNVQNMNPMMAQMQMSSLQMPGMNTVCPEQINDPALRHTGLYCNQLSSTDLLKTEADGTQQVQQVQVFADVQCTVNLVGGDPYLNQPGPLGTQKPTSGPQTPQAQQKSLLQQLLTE

[5] = target: Peroxisome proliferator-activated receptor gamma/Nuclear receptor coactivator 3 (Homo sapiens, UniProt P37231); assay: as §1, with “3 (SRC-3)” for “1 (SRC-1)”, “assays: 1301 (Confirmation screen.), 1048 (Primary screen.)]” for “assays (depositor defined):AID1300, AID1808, AID504735, AID631]”; assay type: functional
[6] = target: Peroxisome proliferator-activated receptor gamma/Nuclear receptor coactivator 2 (Homo sapiens, UniProt P37231); assay: TR-FRET dose response biochemical High Throughput Screening assay for agonists of the steroid receptor coactivator 2 (SRC-2) recruitment by the peroxisome proliferator-activated receptor gamma (PPAR gamma): non-selective agonists. [Related pubchem assays: 1297, 1032 ]; assay type: functional
Sequence of Peroxisome proliferator-activated receptor gamma/Nuclear receptor coactivator 2 (P37231 whole entry): as the sequence (P37231 whole entry) above
Sequence of Peroxisome proliferator-activated receptor gamma/Nuclear receptor coactivator 2 (Q15596 whole entry, further chain): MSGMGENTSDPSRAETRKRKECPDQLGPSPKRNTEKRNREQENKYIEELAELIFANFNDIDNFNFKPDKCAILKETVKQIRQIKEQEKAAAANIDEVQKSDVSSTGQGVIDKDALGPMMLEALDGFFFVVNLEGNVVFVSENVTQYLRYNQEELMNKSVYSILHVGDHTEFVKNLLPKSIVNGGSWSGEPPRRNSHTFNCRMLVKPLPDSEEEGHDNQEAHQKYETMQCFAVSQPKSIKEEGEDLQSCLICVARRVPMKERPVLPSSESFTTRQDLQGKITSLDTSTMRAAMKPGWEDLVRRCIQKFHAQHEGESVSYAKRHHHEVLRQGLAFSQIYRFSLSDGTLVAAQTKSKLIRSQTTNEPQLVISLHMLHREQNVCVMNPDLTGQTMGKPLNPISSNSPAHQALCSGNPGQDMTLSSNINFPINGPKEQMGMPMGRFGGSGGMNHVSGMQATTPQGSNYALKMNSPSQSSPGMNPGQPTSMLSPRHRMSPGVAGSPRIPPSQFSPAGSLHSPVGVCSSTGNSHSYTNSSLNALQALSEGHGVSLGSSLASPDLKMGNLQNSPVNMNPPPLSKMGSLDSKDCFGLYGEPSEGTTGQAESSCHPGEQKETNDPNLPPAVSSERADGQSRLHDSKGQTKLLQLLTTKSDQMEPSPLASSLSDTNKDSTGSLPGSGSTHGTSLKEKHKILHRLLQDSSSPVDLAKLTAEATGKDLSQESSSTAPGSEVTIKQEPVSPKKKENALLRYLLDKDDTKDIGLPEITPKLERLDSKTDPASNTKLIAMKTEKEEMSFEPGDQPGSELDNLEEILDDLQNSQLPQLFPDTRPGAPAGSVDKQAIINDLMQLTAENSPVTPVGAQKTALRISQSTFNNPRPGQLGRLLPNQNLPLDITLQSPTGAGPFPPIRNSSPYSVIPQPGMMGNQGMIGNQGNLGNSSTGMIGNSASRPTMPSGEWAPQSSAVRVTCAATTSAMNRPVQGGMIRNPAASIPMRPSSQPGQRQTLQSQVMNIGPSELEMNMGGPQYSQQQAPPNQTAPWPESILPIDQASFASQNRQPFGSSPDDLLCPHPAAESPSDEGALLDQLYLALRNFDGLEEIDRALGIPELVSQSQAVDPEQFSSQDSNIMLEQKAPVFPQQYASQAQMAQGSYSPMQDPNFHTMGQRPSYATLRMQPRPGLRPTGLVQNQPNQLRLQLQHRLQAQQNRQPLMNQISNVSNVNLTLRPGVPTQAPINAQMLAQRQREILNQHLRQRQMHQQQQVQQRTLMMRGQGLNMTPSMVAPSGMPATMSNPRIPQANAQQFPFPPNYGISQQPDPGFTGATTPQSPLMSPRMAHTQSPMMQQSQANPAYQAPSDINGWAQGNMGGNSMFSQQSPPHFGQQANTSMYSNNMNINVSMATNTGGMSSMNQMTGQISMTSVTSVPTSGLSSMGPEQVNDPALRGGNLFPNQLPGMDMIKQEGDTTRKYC

Sequence of Glyceraldehyde-3-phosphate dehydrogenase (P04406 whole entry): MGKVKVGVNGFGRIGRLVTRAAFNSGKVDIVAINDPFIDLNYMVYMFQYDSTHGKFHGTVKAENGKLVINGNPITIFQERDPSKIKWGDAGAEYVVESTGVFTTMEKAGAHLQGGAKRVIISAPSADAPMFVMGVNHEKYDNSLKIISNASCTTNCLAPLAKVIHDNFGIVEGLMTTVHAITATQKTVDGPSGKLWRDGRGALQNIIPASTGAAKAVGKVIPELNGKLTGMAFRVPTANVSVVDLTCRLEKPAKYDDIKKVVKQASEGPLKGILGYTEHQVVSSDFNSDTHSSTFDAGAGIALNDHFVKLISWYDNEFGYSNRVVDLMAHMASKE

SMILES	EC50 [4]	EC50 [5]	EC50 [6]	also measured
COC(=O)c1cc(-c2cc(F)c(Cl)cc2Cl)n[nH]1				IC50 [1]: > 100 µM (not active); IC50 [2]: > 100 µM (inactive); IC50 [3]: 0.911 µM (active)
CCOC(=O)c1ccc(NC(=O)Nc2ccc(F)cc2)cc1				EC50 (Ion channel NompC): > 9.97 µM (inactive); EC50 (Mucolipin-3): > 29.9 µM (not active)
Cn1c(=O)cc(SCC(=O)N2CCC3(CC2)OCCO3)c2ccccc21	> 79.4 µM (inactive)	> 79.4 µM (not active)	> 79.4 µM (not active)	
Brc1ccc(-c2nc3ccccc3s2)s1	3.34 µM (active)	81.4 µM (not active)	3.18 µM (active)	
